Values of other authors as cited in patent US6610297B1, “Peptide immunogens for vaccination against and treatment of allergy” (Novartis AG, priority 1996, dated 2003).

Target: T1, FcεRI (Homo sapiens, UniProt P12319)
T1 sequence (P12319 26-257): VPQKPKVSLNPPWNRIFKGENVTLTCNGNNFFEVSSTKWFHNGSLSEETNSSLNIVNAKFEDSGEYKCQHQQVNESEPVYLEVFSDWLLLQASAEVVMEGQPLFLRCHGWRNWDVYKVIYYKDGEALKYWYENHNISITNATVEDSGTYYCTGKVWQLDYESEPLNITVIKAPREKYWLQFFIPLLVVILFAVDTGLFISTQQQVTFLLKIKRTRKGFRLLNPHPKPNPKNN
Details: read-out: affinity of IgE for FcεRI (Kd); cited from earlier work

## immunoglobulin E [IgE]
  Kd: ~0.1 nM
